# According to US8309790B2, “Animal models for demyelination disorders” (University of Chicago, priority 2005, dated 2012):
# Assays:
# [1] = system: corpus callosum of double transgenic mice treated with cuprizone; assay: Cuprizone-induced demyelination and remyelination in GFAP/tTA; TRE/IFN-γ double transgenic mice; type: in vivo
# Description: The effects of IFN-γ on demyelination were evaluated in a cuprizone animal model using transgenic mice that allow for temporally regulated delivery of IFN-γ using the tetracycline controllable system (Lin, et al. (2004) J. Neurosci. 24: 10074-10083). The transgenic mice were generated by mating line 110 GFAP/tTA mice on the C57BL/6 background with line 184 TRE/IFN-γ on the C57BL/6 background to produce GFAP/tTA; TRE/IFN-γ double transgenic mice (Lin, et al. (2004) J. Neurosci. 24: 10074-10083). Transcriptional activation of the TRE/IFN-γ transgene by tTA was repressed in the control (DOX+) mice by adding 0.05 mg/ml doxycycline to the drinking water which was provided ad libitum from the day of conception. The DOX+ double transgenic mice were GFAP/tTA; TRE/IFN-γdouble transgenic animals fed cuprizone chow and never released from the doxycycline solution. DOX− double transgenic mice were GFAP/tTA; TRE/IFN-γdouble transgenic animals fed cuprizone chow and released from doxycycline to induce expression of IFN-γ.
# Demyelination was induced in 6-week-old DOX+ and DOX− male mice by feeding the mice a diet of milled mouse chow containing 0.2% cuprizone (Sigma-Aldrich, St. Louis, […].) for up to 6 weeks. Subsequently, both groups of mice were returned to a normal diet for up to 3 weeks to allow remyelination to occur. All animal procedures were conducted in complete compliance with the NIH Guide for the Care and Use of Laboratory Animals and were approved by the Institutional Animal Care and Use Committee of The University of Chicago.
# The effects of INF-γ and MBP on demyelination were evaluated as the level of INF-γ and MHC-1, the loss of oligodendrocytes, and the expression of myelin genes.
# The expression of IFN-γ in these animals was examined by Enzyme-Linked Immunosorbent Assay (ELISA) analysis as follows. Spinal cord and forebrains were removed, rinsed in ice cold PBS, and immediately homogenized in five volumes of PBS with complete protease cocktail (Roche, Indianapolis, Ind.) using a motorized homogenizer. After incubation on ice for 5 min the extracts were cleared by centrifugation at 14000 rpm for 10 min. The protein content of each extract was determined by the DC protein assay (Bio-Rad, Hercules, Calif.). […]
# The effect of INF-γ on the population of oligodendrocytes was evaluated by immunohistochemical analysis of oligodendrocytes using an anti-CC1 antibody (APC7, 1:50; EMD Biosciences, Inc., La Jolla, Calif.) Immunohistochemistry was performed on brain sections obtained from mice that were first anesthetized mice and perfused through the left cardiac ventricle with 4% paraformaldehyde in 0.1 M PBS. […]
# [2] = system: oligodendrocytes in adult mice; assay: IFN-γ expression in the CNS of adult double transgenic mice (released from doxycycline at 4 weeks of age); type: in vivo
# Excerpt: Compared with the actively myelinating oligodendrocytes of young growing animals, oligodendrocytes in adult mice produce lower levels of membrane proteins and lipids, just enough to maintain homeostasis in the myelin structure (Morell, et al. (1999) Basic Neurochemistry: Molecular, Cellular, and Medical Aspects (Philadelphia, Pa.: Lippincott-Raven Publishers): 69-93). The ER of oligodendrocytes in adult animals may thus have more spare capacity to process increased protein load and as such may be less sensitive to disruptions of the protein secretory pathway. To examine this possibility, double transgenic mice were allowed to develop to maturity, at which time IFN-γ expression in the CNS was initiated.
substance,measurement,setting,value
interferon-γ [IFN-γ],remyelinated axons,"[1]; DOX− mice, corpus callosum, 8 weeks, EM",26.9%±7%
same,"expression of myelin genes MBP, PLP and CGT","[1]; DOX− mice, corpus callosum, week 6 and week 8",significantly depressed
same,"expression of MHC class I (MHC-I) in the corpus callosum, real-time PCR","[1]; DOX− mice, during remyelination",significant increase
same,effect on the initial pathological processes induced by cuprizone exposure,"[1]; DOX− vs DOX+ mice, up to 5 weeks cuprizone",does not have a significant effect
same,BIP and CHOP in the cerebellum,[2]; 10-week-old mice released from doxycycline at 4 weeks of age,modest induction
same,oligodendrocyte survival,"[2]; adult mice, wild-type or PERK+/− background",did not affect
